According to ChEMBL document CHEMBL4680193, “Isoindoline scaffold-based dual inhibitors of HDAC6 and HSP90 suppressing the growth of lung cancer in vitro and in vivo” (Eur J Med Chem, 2020):
pIC50: −log10 of the molar value. Active and inactive are the calls of the source. No cut-off for these calls is given here.

Columns and labels:
A549 = test: Growth inhibition of human A549 cells incubated for 48 hrs by SRB assay; assay type: functional
NCI-H1975 [1] = test: cells; assay type: functional; conditions: Homo sapiens, time 48 hrs
Histone deacetylase = assay type: tissue-based, Homo sapiens; conditions: hela
[2] = molecular target: Heat shock protein HSP 90-alpha (Homo sapiens, UniProt P07900); test: Inhibition of HSP90a (unknown origin)
Histone deacetylase 1 = Histone deacetylase 1 (Homo sapiens, UniProt Q13547); test: Inhibition of recombinant human C-terminal FLAG-His-tagged HDAC1 (1 to 482 residues) expressed in Sf21 cells using RHK-K(Ac)-AMC as substrate incubated for 60 mins by fluorimetry analysis
Histone deacetylase 1, sequence (Q13547 whole entry, the tested form may be a part): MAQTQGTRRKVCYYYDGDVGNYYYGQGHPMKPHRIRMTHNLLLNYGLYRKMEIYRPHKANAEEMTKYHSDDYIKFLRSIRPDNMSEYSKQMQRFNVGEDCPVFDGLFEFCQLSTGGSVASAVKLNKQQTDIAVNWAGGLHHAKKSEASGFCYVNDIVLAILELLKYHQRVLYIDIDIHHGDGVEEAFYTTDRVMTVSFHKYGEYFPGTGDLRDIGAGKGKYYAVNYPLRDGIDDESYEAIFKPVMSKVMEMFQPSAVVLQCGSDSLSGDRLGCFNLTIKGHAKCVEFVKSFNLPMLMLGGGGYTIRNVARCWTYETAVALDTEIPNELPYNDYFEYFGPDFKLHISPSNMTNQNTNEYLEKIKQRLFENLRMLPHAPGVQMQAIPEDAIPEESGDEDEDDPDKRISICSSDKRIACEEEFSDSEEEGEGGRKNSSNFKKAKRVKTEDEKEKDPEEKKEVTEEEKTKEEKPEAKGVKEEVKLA

Histone deacetylase 3 = Histone deacetylase 3 (Homo sapiens, UniProt O15379)
Histone deacetylase 3, sequence (O15379 whole entry): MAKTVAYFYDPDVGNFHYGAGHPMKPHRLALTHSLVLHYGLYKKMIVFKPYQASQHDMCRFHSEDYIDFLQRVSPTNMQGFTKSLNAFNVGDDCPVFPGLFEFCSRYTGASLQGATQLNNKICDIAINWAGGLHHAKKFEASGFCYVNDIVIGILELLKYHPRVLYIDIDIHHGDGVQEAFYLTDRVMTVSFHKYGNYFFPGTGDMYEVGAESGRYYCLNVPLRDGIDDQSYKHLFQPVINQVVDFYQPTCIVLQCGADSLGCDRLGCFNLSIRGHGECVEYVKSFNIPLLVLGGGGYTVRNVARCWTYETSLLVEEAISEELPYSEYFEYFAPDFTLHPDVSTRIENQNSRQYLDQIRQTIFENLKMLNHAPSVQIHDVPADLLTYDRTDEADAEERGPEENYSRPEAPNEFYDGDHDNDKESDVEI

[3] = molecular target: T1, Protein deacetylase HDAC6 (Homo sapiens, UniProt Q9UBN7); test: Inhibition of recombinant human HDAC6 using RHK-K(Ac)-AMC as substrate by fluorescence based assay
T1 sequence (Q9UBN7 whole entry): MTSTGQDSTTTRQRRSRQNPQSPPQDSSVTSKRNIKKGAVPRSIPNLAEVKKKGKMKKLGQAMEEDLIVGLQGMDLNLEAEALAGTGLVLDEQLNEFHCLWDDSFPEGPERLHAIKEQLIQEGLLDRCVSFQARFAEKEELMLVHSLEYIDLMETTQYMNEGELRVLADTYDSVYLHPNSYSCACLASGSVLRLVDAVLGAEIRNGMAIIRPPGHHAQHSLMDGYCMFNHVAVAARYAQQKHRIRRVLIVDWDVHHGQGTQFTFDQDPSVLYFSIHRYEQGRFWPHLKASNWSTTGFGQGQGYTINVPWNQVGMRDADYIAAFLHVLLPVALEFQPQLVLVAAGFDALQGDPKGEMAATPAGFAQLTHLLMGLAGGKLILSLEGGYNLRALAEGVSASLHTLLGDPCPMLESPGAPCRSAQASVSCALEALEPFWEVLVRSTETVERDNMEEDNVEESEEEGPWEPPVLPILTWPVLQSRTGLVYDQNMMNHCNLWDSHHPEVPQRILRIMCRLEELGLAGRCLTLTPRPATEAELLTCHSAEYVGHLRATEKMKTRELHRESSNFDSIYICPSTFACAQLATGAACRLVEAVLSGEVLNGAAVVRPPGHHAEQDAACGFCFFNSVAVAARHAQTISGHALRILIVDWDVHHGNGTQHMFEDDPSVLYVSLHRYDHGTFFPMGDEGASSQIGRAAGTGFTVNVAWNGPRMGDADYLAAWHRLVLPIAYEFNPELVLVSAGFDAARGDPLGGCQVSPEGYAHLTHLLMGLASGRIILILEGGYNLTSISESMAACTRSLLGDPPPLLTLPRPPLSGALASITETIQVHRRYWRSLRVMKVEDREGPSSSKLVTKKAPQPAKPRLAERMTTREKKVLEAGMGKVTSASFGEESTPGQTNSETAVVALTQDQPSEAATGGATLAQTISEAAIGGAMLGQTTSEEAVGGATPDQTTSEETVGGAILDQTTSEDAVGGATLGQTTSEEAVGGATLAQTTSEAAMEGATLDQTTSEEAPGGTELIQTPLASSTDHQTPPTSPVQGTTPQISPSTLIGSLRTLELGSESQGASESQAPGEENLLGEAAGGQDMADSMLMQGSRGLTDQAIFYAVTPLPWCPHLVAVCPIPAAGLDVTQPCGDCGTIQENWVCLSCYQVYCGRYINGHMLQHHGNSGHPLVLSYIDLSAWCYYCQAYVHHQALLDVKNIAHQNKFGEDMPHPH

Histone deacetylase 8 = molecular target: T2, Histone deacetylase 8 (Homo sapiens, UniProt Q9BY41); test: Inhibition of recombinant human HDAC8 using RHK-K(Ac)-AMC as substrate by fluorescence based assay
T2 sequence (Q9BY41 whole entry): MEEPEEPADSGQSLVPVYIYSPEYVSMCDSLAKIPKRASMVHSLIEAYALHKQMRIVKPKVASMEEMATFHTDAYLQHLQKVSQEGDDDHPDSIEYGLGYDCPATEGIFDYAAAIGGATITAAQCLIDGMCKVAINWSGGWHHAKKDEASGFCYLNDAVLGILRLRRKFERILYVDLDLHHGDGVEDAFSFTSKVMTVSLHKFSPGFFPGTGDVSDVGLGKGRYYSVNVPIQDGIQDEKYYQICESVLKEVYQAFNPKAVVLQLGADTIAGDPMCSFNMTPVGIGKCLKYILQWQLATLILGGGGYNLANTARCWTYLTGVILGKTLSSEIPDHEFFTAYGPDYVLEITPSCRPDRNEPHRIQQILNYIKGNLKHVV

Homo sapiens [4] = organism: Homo sapiens; test: Selectivity index, ratio of IC50 for recombinant human C-terminal FLAG-His-tagged HDAC1 (1 to 482 residues) expressed in Sf21 cells to IC50 for recombinant human HDAC6
Homo sapiens [5] = organism: Homo sapiens; test: Selectivity index, ratio of IC50 for recombinant human HDAC3 to IC50 for recombinant human HDAC6
Homo sapiens [6] = organism: Homo sapiens; test: Selectivity index, ratio of IC50 for recombinant human HDAC8 to IC50 for recombinant human HDAC6
NCI-H1975 [7] = test: Antitumor activity against human NCI-H1975 cells xenografted in BALB/c mouse assessed as reduction in tumor growth at 20 mg/kg, ip administered for 2 weeks and measured after 2 week relative to control; assay type: functional; conditions: 336 h, read-out: TGI
[8] = molecular target: T3, Heat shock protein HSP90 (Homo sapiens) (UniProt P07900+P08238); test: Inhibition of HSP90 in human NCI-H1975 cells assessed as decrease in Akt Ser473 phosphorylation at 1 to 3 uM measured after 24 hrs by Western blot analysis; assay type: cell-based; conditions: dose 1-3 µM
[9] = molecular target: T3, Heat shock protein HSP90 (Homo sapiens); test: Inhibition of HSP90 in human NCI-H1975 cells assessed as decrease in STAT3 Tyr705 phosphorylation at 1 to 3 uM measured after 24 hrs by Western blot analysis; assay type: cell-based; conditions: dose 1-3 µM

SMILES | GI50 (A549; Homo sapiens, A549) [nM] | GI50 (NCI-H1975 [1]) [nM] | IC50 (Histone deacetylase) [nM] | pIC50 [2] | pIC50 (Histone deacetylase 1) | pIC50 (Histone deacetylase 3) | pIC50 [3] | pIC50 (Histone deacetylase 8) | Ratio IC50 (Homo sapiens [5]) | Ratio IC50 (Homo sapiens [6]) | inhibition [8] | inhibition [9] | Ratio IC50 (Homo sapiens [4]) | inhibition in vivo at 20 mg/kg (NCI-H1975 [7]) [%] | GI50 (A549) [nM]
COc1c(C)cnc(Cn2cnc3c(Cl)nc(N)nc32)c1C [BIIB021] | 330 | 200 | > 1000 |  |  |  |  |  |  |  |  |  |  |  | 
CC(C)c1cc(C(=O)N2Cc3ccc(NC(=O)CCCCCCCC(=O)NO)cc3C2)c(O)cc1O | 235000 | 1070 | 198.9 | 6.37 | 5.97 | 6.31 | 8.67 | < 5.00 | 233 | > 4720 |  |  | 507 |  | 
CN(C)C/C=C/C(=O)Nc1cc2c(Nc3ccc(F)c(Cl)c3)ncnc2cc1O[C@H]1CCOC1 [AFATINIB] |  |  |  |  |  |  |  |  |  |  |  |  |  | 63.8 | 
O=C(CCCCCCC(=O)Nc1ccccc1)NO [VORINOSTAT] |  |  |  | < 6.00 |  |  |  |  |  |  |  |  |  |  | 1020
CC(C)c1cc(C(=O)N2Cc3ccc(NCc4ccc(C(=O)NO)cc4)cc3C2)c(O)cc1O | 370 | 130 | > 1000 | 7.18 | < 5.00 | 5.01 | 7.48 | 6.38 | 296 | 12.6 |  |  | > 300 |  | 
CC(C)c1cc(C(=O)N2Cc3ccc(/C=C/C(=O)NO)cc3C2)c(O)cc1O | 2740 | 32000 | > 1000 | 6.99 | 5.50 | 5.40 | 6.52 | 6.17 | 13.2 | 2.2 |  |  | 10.4 |  | 
CC(C)c1cc(C(=O)N2Cc3ccc(NC(=O)CCC(=O)NO)cc3C2)c(O)cc1O | 830 | 39000 | > 1000 | 6.91 |  |  | < 5.00 | 5.14 |  |  |  |  |  |  | 
CC(C)c1cc(C(=O)N2Cc3ccc(NCc4ccc(CN5CCN(C)CC5)cc4)cc3C2)c(O)cc1O |  |  |  |  |  |  |  |  |  |  | Active | Active |  |  | 

The next lines start with results.

GI50 (A549; Homo sapiens, A549) [nM] | GI50 (NCI-H1975 [1]) [nM] | IC50 (Histone deacetylase) [nM] | pIC50 [2] | pIC50 (Histone deacetylase 1) | pIC50 (Histone deacetylase 3) | pIC50 [3] | pIC50 (Histone deacetylase 8) | Ratio IC50 (Homo sapiens [5]) | Ratio IC50 (Homo sapiens [6]) | inhibition [8] | inhibition [9] | SMILES | Ratio IC50 (Homo sapiens [4]) | inhibition in vivo at 20 mg/kg (NCI-H1975 [7]) [%] | GI50 (A549) [nM]
> 10000 | > 10000 | > 1000 | 6.87 | 5.13 | 5.36 | 7.16 |  | 64.3 |  |  |  | CC(C)c1cc(C(=O)N2Cc3ccc(NC(=O)CCCC(=O)NO)cc3C2)c(O)cc1O | 108 |  | 
2920 | 434000 | 1683 | 7.36 | 6.26 | 6.41 | 8.66 | 5.82 | 175 | 683 |  |  | CC(C)c1cc(C(=O)N2Cc3ccc(NC(=O)CCCCCCC(=O)NO)cc3C2)c(O)cc1O | 250 |  | 
870 | 1640 | > 1000 | 6.96 | 5.16 | 5.55 | 6.48 | 5.13 | 8.5 | 22.5 |  |  | CC(C)c1cc(C(=O)N2Cc3ccc(NC(=O)CCCCC(=O)NO)cc3C2)c(O)cc1O | 20.8 |  | 
2220 | 680 | 521.4 | 7.36 | 5.42 | 5.66 | 8.03 | 5.70 | 234 | 213 |  |  | CC(C)c1cc(C(=O)N2Cc3ccc(NC(=O)CCCCCC(=O)NO)cc3C2)c(O)cc1O | 404 |  | 
